Measurements as given in publication PMC8560999 (The Journal of Biological Chemistry, 2021).
Where two headings read alike, the source gives them in different places.

Tests used:
[1] = system: AbHpaI•Zn^2+; assay type: biochemical, Acinetobacter baumannii
[2] = system: AbHpaI•Zn^2+; assay type: biochemical, Acinetobacter baumannii; remark: listed apart in the source
[3] = system: AbHpaI; assay type: physicochemical, Acinetobacter baumannii
[4] = system: AbHpaI; assay type: physicochemical, Acinetobacter baumannii; remark: listed apart in the source
[5] = system: AbHpaI; assay type: binding, Acinetobacter baumannii
[6] = system: AbHpaI•Zn^2+; assay: Steady-state aldol cleavage followed as substrate depletion by RapidFire high-throughput mass spectrometry in 10 mM HEPES pH 7.0 with 0.1 mM Zn2+ and 5 uM ((4R)-KDGal) or 40 uM ((4S)-KDGlu) enzyme, Michaelis-Menten fit.; assay type: biochemical
Description: The aldol cleavage steady-state kinetics of (4R)-KDGal and (4S)-KDGlu catalyzed by AbHpaI•Zn^2+ were carried out using RapidFire high-throughput mass spectrometry. The reactions contained 0.1 mM ZnCl2 and the purified AbHpaI in buffer H and varying concentrations of the substrate. […] Before RapidFire analysis, the reaction was quenched by an equal volume of ACN at various times (0.5–30 min) and the quenched solution was centrifuged at 12,000g for 10 min and filtered by a 0.22-μm nylon membrane syringe filter (FilterBio Nylon Syringe Filter) to obtain the filtrate of the remaining substrate. The substrate control reaction without the enzyme was performed. […] Peak areas of the remaining substrate were measured in a negative mode with a quantitative selected ion monitoring (SIM) mode to detect the m/z 177.0 ([M-H]^−) of both (4R)-KDGal and (4S)-KDGlu, and the concentrations were determined from the calibration plot of substrate standard concentrations (0.025–3.2 mM) versus peak areas. The initial velocity (νo) of the substrate depletion from each individual concentration of substrate was calculated from the slope of the plot between the remaining substrate and time. The plots of νo versus each substrate concentration were analyzed by Michaelis–Menten equation using the Levenberg–Marquardt algorithms in GraphPad Prism version 7 software (GraphPad Software, Inc) to determine Km and kcat.

[7] = system: BxBphI; conditions: cited from earlier work
[8] = system: AbHpaI•Zn^2+; conditions: read-out: Km (mM), aldol condensation of (4R)-KDGal synthesis, D-glyceraldehyde varied
[9] = molecular target: 4-hydroxy-2-keto-heptane-1,7-dioate aldolase from Acinetobacter baumannii (Acinetobacter baumannii); assay: SEC; Superdex 200 Increase 10/300 GL, 10 mM HEPES pH 7.0 with 150 mM NaCl, 0.5 ml/min, 25 °C, calibrated with protein standards of 12.4-440 kDa
[10] = molecular target: 4-hydroxy-2-keto-heptane-1,7-dioate aldolase from Acinetobacter baumannii (Acinetobacter baumannii); assay: crystal structure; 11 structures of AbHpaI (apo and with M2+ and ligands), monoclinic C2 crystals, trimer per asymmetric unit, hexamer by twofold rotational symmetry; crystals grown with sodium acetate pH 4.6, CaCl2 and 30% MPD
[11] = system: AbHpaI; assay type: biochemical, Acinetobacter baumannii
[12] = molecular target: AbHpaI•Mn^2+; assay: Isothermal titration calorimetry (MicroCal PEAQ-ITC) of 10 mM pyruvate into 40 uM apo-AbHpaI mixed with metal ion at 10 times its Kd, 50 mM HEPES pH 7.0, 25 °C, one-site binding model.
Description: (§1) The Kd values for the binding of AbHpaI with ligands including M^2+ ions (Zn^2+, Co^2+, Mn^2+, Mg^2+, and Ca^2+) and pyruvate were measured by MicroCal PEAQ-ITC technique (Malvern Panalytical). Briefly, a 10-ml solution of apo-AbHpaI (200 μM) was dialyzed in 2 l of buffer F at 4 °C for 16 to 18 h. The dialyzed buffer was used to prepare a stock solution of each ligand. To measure the Kd value for the AbHpaI•M^2+ complex, a 200-μl solution of the apo-AbHpaI (40 μM) was loaded into the sample cell and the Milli-Q Type I ultrapure water was used as a reference. Three microliters of 1.5 mM ligand solution of each M^2+ in a syringe was continuously titrated into the sample cell (0.3 μM per each injection for 13 injections) until the ligand binding reached an equilibrium at 25 °C. The Microcal PEAQ-ITC analysis software was used to calculate the Kd using the one-site binding model. To determine the pyruvate binding constant to AbHpaI, a 200-μl solution of the apo-AbHpaI (40 μM) was placed in the sample cell and sequentially titrated with 3 μl of 10 mM pyruvate solution from a syringe. To determine the pyruvate binding constant to the AbHpaI•M^2+ complex, a 200-μl solution of the mixture of apo-AbHpaI (40 μM) and 10 Kd of each M^2+ was placed in the sample cell and sequentially titrated with 3 μl of a 10 mM solution mixture of pyruvate and 10 Kd of each M^2+.

[13] = molecular target: AbHpaI•Zn^2+; assay: as above
Description: as §1

[14] = molecular target: AbHpaI•Co^2+; assay: as above
Description: as §1

[15] = system: EcHpaI; conditions: cited from earlier work

Molecule: O=C(O)C(=O)CC(O)C(O)CO [(4R)-KDGal, (4R)-2-keto-3-deoxy-D-galactonate]
- turnover number of (4R)-KDGal synthesis [1]: ~1.67 s⁻¹
- Km [2]: 300 ± 100 µM
- kcat [2]: 0.05 ± 0.005 s⁻¹
- kcat of cleavage, fold faster than (4S)-KDGlu [2]: 18 fold
- kcat/Km of cleavage, fold greater than (4S)-KDGlu [2]: about 36 fold

Molecule: CO [MeOH, methanol]
- protein stability of AbHpaI perturbed [3]: 10%

Molecule: [Co+2] [Co^2+]
- ΔTm [4]: 3.4 °C
- mole ratio of metal ion per AbHpaI [5]: 0.8

Molecule: C[S+](C)[O-] [DMSO, dimethylsulfoxide]
- protein stability of AbHpaI perturbed [3]: 10%

Molecule: O=C(O)C(=O)C[C@@H](O)[C@H](O)CO [(4R)-KDGal, (4R)-2-keto-3-deoxy-D-galactonate]
- Km [6]: 0.3 ± 0.1 mM

Molecule: C[C@H](O)CC(=O)C(=O)O [(4S)-HOPA, 4-hydroxy-2-oxopentanoate]
- turnover number, aldol cleavage [7]: 4 s⁻¹
- turnover number, condensation [7]: 0.9 s⁻¹

Molecule: O=C[C@H](O)CO [D-Glyceraldehyde, D-glyceraldehyde]
- kcat [1]: 2.048 ± 0.293 s⁻¹
- Km [8]: 10.6 ± 3.6 mM

Molecule: [Mn+2] [Mn^2+]
- ΔTm [4]: 1.7 °C
- mole ratio of metal ion per AbHpaI [5]: 0.6

Molecule: [Zn+2] [Zn^2+]
- Tm [4]: 87 °C
- ΔTm [4]: 5.7 °C
- mole ratio of metal ion per AbHpaI [5]: 1.1

Molecule: 4-hydroxy-2-keto-heptane-1,7-dioate aldolase from Acinetobacter baumannii (enzyme)
- stoichiometry N [9]: 6
- stoichiometry N [10]: 6

Molecule: O=C(O)C(=O)C[C@H](O)[C@H](O)CO [(4S)-KDGlu, (4S)-2-keto-3-deoxy-D-gluconate]
- (4S)-KDGlu formation as compared to (4R)-KDGal [11]: 0.1%
- kcat [2]: 0.00283 ± 0.00017 s⁻¹
- Km [6]: 0.6 ± 0.1 mM

Molecule: [Ca+2] [Ca^2+]
- mole ratio of metal ion per AbHpaI [5]: 0.1

Molecule: CC(=O)C(=O)O [Pyruvate, pyruvate]
- Km [1]: 1600 ± 700 µM
- kcat [1]: 1.713 ± 0.265 s⁻¹
- Kd [12]: 1320 ± 500 µM
- Kd [13]: 980 ± 60 µM
- Kd [14]: 320 ± 40 µM
- pKa of pyruvate C3-methyl [15]: ~6.5

Molecule: CC#N [ACN, acetronitrile]
- protein stability of AbHpaI perturbed [3]: 10%

Molecule: [Mg+2] [Mg^2+]
- mole ratio of metal ion per AbHpaI [5]: 0.6
